Values of other authors in US11603489B2, “Method for inhibiting water permeation in an extraction well of a hydrocarbon oil from an underground reservoir” (priority 2016, dated 2023).
Like-named read-outs stand apart in the source and are kept apart here.

How the values were obtained:
[1] = not given; remark: listed apart in the source
[2] = temperature at which the initiator has a half-life of 10 hours
[3] = temperature at which the initiator has a half-life of 10 hours, in benzene
[4] = distribution coefficient between water and 1-octanol

SMILES	Log P octanol/water [1, 4]	T1/2(10 h) in water [2]	further results
CCCCCCCCCCCC(=O)OOC(=O)CCCCCCCCCCC [lauroyl peroxide]	> 0		T1/2(10 h) in benzene [3]: 75 °C
CC(C)(N=NC(C)(C)C(=O)NC1CCCCC1)C(=O)NC1CCCCC1 [VAm-111, 2,2′-azobis(N-cyclohexyl-2-methylpropionamide)]			T1/2(10 h) in benzene: 111 °C; Log P octanol/water [1]: > 0
CC(C)(N=NC(C)(C)C1=NCCN1)C1=NCCN1.Cl.Cl [VA-044, 2,2′-Azobis[2-(2-imidazolin-2-yl)propane]dihydrochloride]		44 °C	
CC(C)(N=NC(C)(C)C(=O)NC(CO)(CO)CO)C(=O)NC(CO)(CO)CO [VA080, 2,2′-Azobis{2-methyl-N-[1,1-bis(hydroxymethyl)-2-hydroxyethyl]propionamide}]		80 °C	Log P octanol/water [1]: < 0
CC(C)(N=NC(C)(C)C1=NCCN1)C1=NCCN1 [VA-061, 2,2′-Azobis[2-(2-imidazolin-2-yl)propane]]		61 °C	
CC(C)(N=NC(C)(C)C(=O)NCCO)C(=O)NCCO [VA086, 2,2′-Azobis[2-methyl-N-(2-hydroxyethyl)propionamide]]		87 °C	
O=S(=O)([O-])OOS(=O)(=O)[O-].[Na+].[Na+] [sodium persulfate]		65 °C	
CC(C)(C)OOC(C)(C)C [tert-butyl peroxide]	> 0		T1/2(10 h) in benzene [3]: 70 °C
CCCCNC(=O)C(C)(C)N=NC(C)(C)C(=O)NCCCC [VAm-110, 2,2′-azobis(N-butyl-2-methylpropionamide)]			T1/2(10 h) in benzene: 110 °C; Log P octanol/water [1]: > 0
CC(C#N)(CCC(=O)O)N=NC(C)(C#N)CCC(=O)O (stereo not drawn) [4,4′-Azobis(4-cyanovaleric acid)]		50 °C	
O=S(=O)([O-])OOS(=O)(=O)[O-].[K+].[K+] [potassium persulfate]		65 °C	
CC(C)(N=NC(C)(C)C(=N)NCCC(=O)O)C(=N)NCCC(=O)O.O.O.O.O [VA-057, 2,2′-Azobis[N-(2-carboxyethyl)-2-methylpropionamidine]tetrahydrate]	< 0	57 °C	
N.N.O=S(=O)(O)OOS(=O)(=O)O [ammonium persulfate]		65 °C	
C=CCNC(=O)C(C)(C)N=NC(C)(C)C(=O)NCC=C [VF-096, 2,2′-azobis[N-(2-propenyl)-2-methylpropionamide]]			T1/2(10 h) in benzene: 96 °C; Log P octanol/water [1]: > 0
CC(C)(C)OOC(=O)c1ccccc1 [tert-butyl peroxybenzoate]	> 0		T1/2(10 h) in benzene [3]: 73 °C
CC(C)(N=NC(C)(C)C(=N)N)C(=N)N.Cl.Cl [2,2′-Azobis(2-methylpropionamidine) dihydrochloride]			T1/2(10 h) in water ([2]; dihydrochloride): 55 °C
O=C(OOC(=O)c1ccccc1)c1ccccc1 [benzoyl peroxide]	> 0		
CC(C)(C#N)N=NC(N)=O [Composition V-30, 1-[(1-cyano-1-methylethyl)azo]formamide]	> 0		T1/2(10 h) in benzene [3]: 104 °C
CCC(C)(N=NC(C)(CC)C(=N)N1CCCC1)C(=N)N1CCCC1.Cl.Cl (stereo not drawn) [VA-067, 2,2′-Azobis(1-imino-1-pyrrolidine-2-ethylpropane)-dihydrochloride]		67 °C	
CC(C)(N=NC(C)(C)C1=NCCN1)C1=NCCN1.O.O.O=S(=O)(O)O.O=S(=O)(O)O [VA-046B, 2,2′-Azobis[2-(2-imidazolin-2-yl)propane]disulfate dihydrate]		47 °C	
O.O.O=S(=O)([O-])CO.[Na+] [hydroxymethanesulfonic acid monosodium salt dihydrate]	< 0	60 °C	
CCC(C)(C#N)N=NC(C)(C#N)CC (stereo not drawn) [Composition V-59, 2,2′-azobis(2-methylbutyronitrile)]	> 0		
CC(C)(N=NC(C)(C)C1=NCCN1CCO)C1=NCCN1CCO.Cl.Cl [VA-060, 2,2′-Azobis{2-[1-(2-hydroxyethyl)-2-imidazolinyl]propane}-dihydrochloride]	< 0	60 °C	
CC(C)(OOC(C)(C)c1ccccc1)c1ccccc1 [dicumyl peroxide]	> 0		T1/2(10 h) in benzene [3]: 75 °C
